The assay relates to H1N1 (influenza A/New Caledonia/20/99). Put plainly: microbe, parasite or virus in culture. The format is cell-based. Particulars: H1N1, A549, 48 h.

Structures are written as SMILES. Where a name gives a salt, the structure may show the parent alone.

`CC1(C)CCc2sc(NC(=O)c3ccc(Br)cc3)c(C(=O)O)c2C1` [Compound #154, 2-[(4-Bromobenzoyl)amino]-5,5-dimethyl-6,7-dihydro-4H-benzothiophene-3-carboxylic acid] displayed a 50% inhibitory concentration (IC50) of 0.03 µM.
In the case of `COCCCNc1ccc(C(=O)Nc2sc3c(c2C(=O)O)CC(C)(C)CC3(C)C)cc1` [Compound #140, 2-[[4-(3-Methoxypropylamino)benzoyl]amino]-5,5,7,7-tetramethyl-4,6-dihydrobenzothiophene-3-carboxylic acid] it was 0.0034 µM; in that of `CC1(C)CCc2c(sc(NC(=O)c3ccc(OC(F)F)cc3)c2C(=O)O)C1` [Compound #23, 2-[[4-(Difluoromethoxy)benzoyl]amino]-6,6-dimethyl-5,7-dihydro-4H-benzothiophene-3-carboxylic acid], 0.08 µM.
In the case of `COc1ccc(C(=O)Nc2sc3c(c2C(=O)O)CCC(C)(C)C3)nc1` [Compound #25, 2-[(5-Methoxypyridine-2-carbonyl)amino]-6,6-dimethyl-5,7-dihydro-4H-benzothiophene-3-carboxylic acid] it was 0.09 µM.
`CCOC1CN(c2ccc(C(=O)Nc3sc4c(c3C(=O)O)CC(C)(C)CC4(C)C)cc2)C1` [Compound #156, 2-[[4-(3-Ethoxyazetidin-1-yl)benzoyl]amino]-5,5,7,7-tetramethyl-4,6-dihydrobenzothiophene-3-carboxylic acid] displayed an IC50 of 0.002 µM.
`CC1(C)CCc2c(sc(NC(=O)c3ccccn3)c2C(=O)O)C1` [Compound #96, 6,6-Dimethyl-2-(pyridine-2-carbonylamino)-5,7-dihydro-4H-benzothiophene-3-carboxylic acid]: the IC50 was 0.8 µM.
Molecule `COCCNc1ccc(C(=O)Nc2sc3c(c2C(=O)O)CC(C)(C)CC3)cc1` [#173, 2-[[4-(2-Methoxyethylamino)benzoyl]amino]-5,5-dimethyl-6,7-dihydro-4H-benzothiophene-3-carboxylic acid] yielded an IC50 of 0.024 µM.
As for `CC1(C)CCc2sc(NC(=O)c3ccnc(N4CCOCC4)c3)c(C(=O)O)c2C1` [#221, 5,5-Dimethyl-2-[(2-morpholinopyridine-4-carbonyl)amino]-6,7-dihydro-4H-benzothiophene-3-carboxylic acid], 0.38 µM corresponded to half-maximal inhibition (IC50).
`CC1(C)CCc2sc(NC(=O)c3ccc(N4CCC(O)CC4)cc3)c(C(=O)O)c21` [Compound #78, 2-[[4-(4-Hydroxy-1-piperidyl)benzoyl]amino]-4,4-dimethyl-5,6-dihydrocyclopenta[b]thiophene-3-carboxylic acid] had a concentration for half-maximal inhibition (IC50) of 0.29 µM.
In the case of `CC1(C)Cc2c(sc(NC(=O)c3ccc(N4CCOCC4)nc3)c2C(=O)O)C(C)(C)C1` [#201, 5,5,7,7-Tetramethyl-2-[(6-morpholinopyridine-3-carbonyl)amino]-4,6-dihydrobenzothiophene-3-carboxylic acid] it was 0.15 µM; in that of `CC1(C)Cc2c(sc(NC(=O)c3ccncn3)c2C(=O)O)C(C)(C)C1` [#205, 5,5,7,7-Tetramethyl-2-(pyrimidine-4-carbonylamino)-4,6-dihydrobenzothiophene-3-carboxylic acid], 0.74 µM.
As for `CC1(C)CCc2c(sc(NC(=O)c3cccc(N4CCOCC4)n3)c2C(=O)O)C1` [#219, 6,6-Dimethyl-2-[(6-morpholinopyridine-2-carbonyl)amino]-5,7-dihydro-4H-benzothiophene-3-carboxylic acid], half-maximal inhibition (IC50) required 0.51 µM.
To `CC1(C)CCc2sc(NC(=O)c3cnc(N4CCOCC4)nc3)c(C(=O)O)c2C1` [#209, 5,5-Dimethyl-2-[(2-morpholinopyrimidine-5-carbonyl)amino]-6,7-dihydro-4H-benzothiophene-3-carboxylic acid] belongs 0.82 µM; to `CC1(C)CCc2sc(NC(=O)c3cccc(N4CCOCC4)n3)c(C(=O)O)c2C1` [#213, 5,5-Dimethyl-2-[(6-morpholinopyridine-2-carbonyl)amino]-6,7-dihydro-4H-benzothiophene-3-carboxylic acid], 0.61 µM; to `CC1(C)CCc2sc(NC(=O)c3cc[nH]n3)c(C(=O)O)c2C1` [#225, 5,5-Dimethyl-2-(1H-pyrazole-3-carbonylamino)-6,7-dihydro-4H-benzothiophene-3-carboxylic acid], 0.11 µM.
On to `CC1(C)CCc2sc(NC(=O)c3ccc(OC(F)(F)F)cc3)c(C(=O)O)c21` [Compound #40, 4,4-Dimethyl-2-[[4-(trifluoromethoxy)benzoyl]amino]-5,6-dihydrocyclopenta[b]thiophene-3-carboxylic acid], for which the 50% inhibitory concentration (IC50) worked out at 0.23 µM.
Consider `COCCn1ccc(C(=O)Nc2sc3c(c2C(=O)O)CC(C)(C)CC3)n1` [#226, 2-[[1-(2-Methoxyethyl)pyrazole-3-carbonyl]amino]-5,5-dimethyl-6,7-dihydro-4H-benzothiophene-3-carboxylic acid], for which half-maximal inhibition (IC50) required 0.82 µM.
As to `CC1(C)CCc2c(sc(NC(=O)c3cccc(N4CCOCC4)c3)c2C(=O)O)C1` [#203, 6,6-Dimethyl-2-[(3-morpholinobenzoyl)amino]-5,7-dihydro-4H-benzothiophene-3-carboxylic acid], it took 0.13 µM to reach half-maximal inhibition (IC50).
`COC1CN(c2ccc(C(=O)Nc3sc4c(c3C(=O)O)C(C)CC(C)(C)C4)cc2)C1` (stereo not drawn) [Compound #153, 2-[[4-(3-Methoxyazetidin-1-yl)benzoyl]amino]-4,6,6-trimethyl-5,7-dihydro-4H-benzothiophene-3-carboxylic acid] gave an IC50 of 0.014 µM. Against the preceding molecule, the IC50 is about 9.3-fold lower.
For the molecule `COC1CN(c2ccc(C(=O)Nc3sc4c(c3C(=O)O)C(C)(C)CC4)cc2)C1` [Compound #146, 2-[[4-(3-Methoxyazetidin-1-yl)benzoyl]amino]-4,4-dimethyl-5,6-dihydrocyclopenta[b]thiophene-3-carboxylicacid], half-maximal inhibition (IC50) required 0.083 µM.
`Cn1cc(C(=O)Nc2sc3c(c2C(=O)O)CC(C)(C)CC3(C)C)cn1` [#176, 5,5,7,7-Tetramethyl-2-[(1-methylpyrazole-4-carbonyl)amino]-4,6-dihydrobenzothiophene-3-carboxylic acid] registered a 50% inhibitory concentration (IC50) of 0.46 µM.
`CC1(C)CCc2sc(NC(=O)c3ccc(NC4CCOCC4)cc3)c(C(=O)O)c2C1` [#161, 5,5-Dimethyl-2-[[4-(tetrahydropyran-4-ylamino)benzoyl]amino]-6,7-dihydro-4H-benzothiophene-3-carboxylic acid] had a half-inhibitory concentration (IC50) of 0.015 µM.
With `CC1(C)Cc2c(sc(NC(=O)c3ccc(NC4CCCOC4)cc3)c2C(=O)O)C(C)(C)C1` (stereo not drawn) [Compound #142, 5,5,7,7-Tetramethyl-2-[[4-(tetrahydropyran-3-ylamino)benzoyl]amino]-4,6-dihydrobenzothiophene-3-carboxylic acid], inhibition was half-maximal at 0.0064 µM (IC50).
Take `CN1CCN(c2ccc(C(=O)Nc3sc4c(c3C(=O)O)CC(C)(C)CC4(C)C)cc2)CC1` [Compound #80, 5,5,7,7-Tetramethyl-2-[[4-(4-methylpiperazin-1-yl)benzoyl]amino]-4,6-dihydrobenzothiophene-3-carboxylic acid]: it took 0.31 µM to reach half-maximal inhibition (IC50).
To `CC1(C)Cc2c(sc(NC(=O)c3ccc(NCC4COC4)cc3)c2C(=O)O)C(C)(C)C1` [Compound #59, 5,5,7,7-Tetramethyl-2-[[4-(oxetan-3-ylmethylamino)benzoyl]amino]-4,6-dihydrobenzothiophene-3-carboxylic acid] belongs 0.01 µM; to `CC1(C)CCc2sc(NC(=O)c3cccc(OC(F)F)c3)c(C(=O)O)c21` [Compound #98, 2-[[3-(Difluoromethoxy)benzoyl]amino]-4,4-dimethyl-5,6-dihydrocyclopenta[b]thiophene-3-carboxylic acid], 0.8 µM.
`CC1(C)CCc2sc(NC(=O)c3ccc(N4CCOCC4)nc3)c(C(=O)O)c2C1` [Compound #65, 5,5-Dimethyl-2-[(6-morpholinopyridine-3-carbonyl)amino]-6,7-dihydro-4H-benzothiophene-3-carboxylic acid] came in with an IC50 of 0.2 µM.
For `CC1(C)Cc2c(sc(NC(=O)c3ccc(NC4CCNCC4)cc3)c2C(=O)O)C(C)(C)C1` [Compound #131, hydrochloride salt], the midpoint of inhibition, the IC50, lay at 0.35 µM. This IC50 lies about 1.7-fold higher than the previous one.
Take `COc1cccc(C(=O)Nc2sc3c(c2C(=O)O)CCC(C)(C)C3)c1` [Compound #21, 2-[(3-Methoxybenzoyl)amino]-6,6-dimethyl-5,7-dihydro-4H-benzothiophene-3-carboxylic acid]: 0.0558 µM corresponded to half-maximal inhibition (IC50).
`COC1CN(c2ccc(C(=O)Nc3sc4c(c3C(=O)O)CC(C)(C)CC4)cc2)C1` [#163, 2-[[4-(3-Methoxyazetidin-1-yl)benzoyl]amino]-5,5-dimethyl-6,7-dihydro-4H-benzothiophene-3-carboxylic acid] showed an IC50 of 0.018 µM.
In the case of `O=C(Nc1sc2c(c1C(=O)O)CCC1(CC1)C2)c1ccc(F)cc1` [Compound #32, 2-[(4-Fluorobenzoyl)amino]spiro[5,7-dihydro-4H-benzothiophene-6,1′-cyclopropane]-3-carboxylic acid] it was 0.16 µM; in that of `CC1(C)Cc2c(sc(NC(=O)c3ccc(NC4CCOC4)cc3)c2C(=O)O)C(C)(C)C1` (stereo not drawn) [Compound #61, 5,5,7,7-Tetramethyl-2-[[4-(tetrahydrofuran-3-ylamino)benzoyl]amino]-4,6-dihydrobenzothiophene-3-carboxylic acid], 0.0279 µM; in that of `CC1CC(C)(C)Cc2sc(NC(=O)c3ccc(NCC4CCOCC4)cc3)c(C(=O)O)c21` (stereo not drawn) [Compound #157, 4,6,6-Trimethyl-2-[[4-(tetrahydropyran-4-ylmethylamino)benzoyl]amino]-5,7-dihydro-4H-benzothiophene-3-carboxylic acid], 0.005 µM.
Turning to `COc1ccc(C(=O)Nc2sc3c(c2C(=O)O)CCC(C)(C)C3)nc1OC` [Compound #94, 2-[(5,6-Dimethoxypyridine-2-carbonyl)amino]-6,6-dimethyl-5,7-dihydro-4H-benzothiophene-3-carboxylic acid], the half-inhibitory concentration (IC50) is 0.66 µM.
`COc1ccc(C(=O)Nc2sc3c(c2C(=O)O)CC(C)(C)CC3)cc1OC` [Compound #27, 2-[(3,4-Dimethoxybenzoyl)amino]-5,5-dimethyl-6,7-dihydro-4H-benzothiophene-3-carboxylic acid] came in with an IC50 of 0.04 µM.
`O=C(Nc1sc2c(c1C(=O)O)CCC(F)(F)C2)c1ccccc1` [Compound #117, 2-Benzamido-6,6-difluoro-5,7-dihydro-4H-benzothiophene-3-carboxylic acid] returned an IC50 of 1.9 µM.

Usually IC50 stands for the concentration at which inhibition is half-maximal.

Values taken from US11492347B2 (ENYO PHARMA, priority 2018, dated 2022).
